Legend:
Assay in all cases: In vitro antifungal activity, microbroth dilution MIC
Assay type in all cases: cell-based
[1] = tested on: Trichophyton mentagrophytes A. 9129; conditions: 4 to 48 hours; for Minimal inhibitory concentration(MIC), T. mentagrophytes A. 9129: RPMI-1640, 35° C., no growth observed
Description: (§1) In vitro antifungal activities of the inventive antifungal compounds were evaluated using the test strains shown in Table VIII by the following microbroth dilution method which is a modified version of the procedure recommended by National Committee for Clinical Laboratory Standards(see National Committee for Clinical Laboratory Standards, 1992, Reference methods for broth dilution antifungal susceptibility testing of yeasts, Proposed standard M27-P, National Committee for clinical laboratory standards, Villanova, Pa; and National Committee for Clinical Laboratory Standards, 1995, Reference methods for broth dilution antifungal susceptibility testing of yeasts. Tentative standard M27-T, National Committee for clinical laboratory standards, Villanova, Pa).
(§2) Sabourad Dextrose Agar(Difco) was used as a culture medium, and RPMI-1640 broth(Sigma. Co. w/L-glutamine, wo/NaHCO3)(0.165 M MOPS, pH 7.0), as a dilution medium.
(§3) Each of the test strains were subcultured in Sabourad Dextrose Agar medium twice and a stain sample was taken from prominent colonies and suspended in sterile physiological saline solution in a cap tube. The turbidity of the suspension was adjusted to that of the Mcfarland 0.5 standard sample(approximately 10^6 CFU/ml). Then the suspension was diluted 500-fold with sterile RPMI-1640 liquid medium to 2×10^3 CFU/ml.
(§4) Each of the test compounds(the compounds obtained in Examples 1 to 150 and comparative compounds, i.e., fluconazole(FCZ) and itraconazole (ICZ)), was dissolved in DMSO to give a stock solution having a concentration of 4000 μg/ml and the stock solution was successively diluted to obtain test solutions having test compound concentrations of 200, 100, 50, 25, 12.5, 6.25, 3.13, 1.56, 0.78, 0.39, 0.20 and 0.10 μg/ml, respectively.
(§5) 0.1 ml portion of the test solutions were added to the wells of a sterile 96 well plate. Then, 0.1 ml portion of each of the test strain solutions were added successively to the wells and the plate was incubated at 35° C. for 4 to 48 hours.
(§6) Minimal inhibitory concentration(MIC) of each compound was defined as the concentration of the test compound where no growth of the strain could be observed.

Candida albicans C1-2 = conditions: 4 to 48 hours; for Minimal inhibitory concentration(MIC), C. albicans C1-2: RPMI-1640, 35° C., no growth observed
Description: as §1, §2, §3, §4, §5, §6

[2] = tested on: Aspergillus furnigatus B. 19119; conditions: 4 to 48 hours; for Minimal inhibitory concentration(MIC), A furnigatus B. 19119: RPMI-1640, 35° C., no growth observed
Description: as §1, §2, §3, §4, §5, §6

[3] = tested on: Cryptococcus neoformans B. 42419; conditions: 4 to 48 hours; for Minimal inhibitory concentration(MIC), Cry. neoformans B. 42419: RPMI-1640, 35° C., no growth observed
Description: as §1, §2, §3, §4, §5, §6

[4] = tested on: Cryptococcus neoformans A. 34144; conditions: 4 to 48 hours; for Minimal inhibitory concentration(MIC), Cry. neoformans A. 34144: RPMI-1640, 35° C., no growth observed
Description: as §1, §2, §3, §4, §5, §6

[5] = tested on: Candida tropicalis A. 13803; conditions: 4 to 48 hours; for Minimal inhibitory concentration(MIC), C. tropicalis A. 13803: RPMI-1640, 35° C., no growth observed
Description: as §1, §2, §3, §4, §5, §6

[6] = tested on: Aspergillus niger A. 16404; conditions: 4 to 48 hours; for Minimal inhibitory concentration(MIC), A. niger A. 16404: RPMI-1640, 35° C., no growth observed
Description: as §1, §2, §3, §4, §5, §6

Candida krusei K. 11655 = conditions: 4 to 48 hours; for Minimal inhibitory concentration(MIC), C. krusei K. 11655: RPMI-1640, 35° C., no growth observed
Description: as §1, §2, §3, §4, §5, §6

[7] = tested on: Candida albicans IFO. 1385; conditions: 4 to 48 hours; for Minimal inhibitory concentration(MIC), C. albicans IFO. 1385: RPMI-1640, 35° C., no growth observed
Description: as §1, §2, §3, §4, §5, §6

[8] = tested on: Trichophyton mentagrophytes B. 32663; conditions: 4 to 48 hours; for Minimal inhibitory concentration(MIC), T. mentagrophytes B. 32663: RPMI-1640, 35° C., no growth observed
Description: as §1, §2, §3, §4, §5, §6

[9] = tested on: Candida albicans A. 10231; conditions: RPMI-1640, 35° C., 4 to 48 hours, no growth observed
Description: as §1, §2, §3, §4, §5, §6

[10] = tested on: Cryptococcus neoformans IFM. 40092; conditions: 4 to 48 hours; for Minimal inhibitory concentration(MIC), Cry. neoformans IFM. 40092: RPMI-1640, 35° C., no growth observed
Description: as §1, §2, §3, §4, §5, §6

[11] = tested on: Candida parapsitosis A. 7330; conditions: 4 to 48 hours; for Minimal inhibitory concentration(MIC), C. parapsitosis A. 7330: RPMI-1640, 35° C., no growth observed
Description: as §1, §2, §3, §4, §5, §6

[12] = tested on: Candida pseudotropicalis K. 11658; conditions: 4 to 48 hours; for Minimal inhibitory concentration(MIC), C. pseudotropicalis K. 11658: RPMI-1640, 35° C., no growth observed
Description: as §1, §2, §3, §4, §5, §6

[13] = tested on: Torulopsis glabrata B. 16205; conditions: 4 to 48 hours; for Minimal inhibitory concentration(MIC), T. glabrata B. 16205: RPMI-1640, 35° C., no growth observed
Description: as §1, §2, §3, §4, §5, §6

Structure (SMILES) | Minimal inhibitory concentration(MIC), T. mentagrophytes A. 9129 [1] | Minimal inhibitory concentration(MIC), C. albicans C1-2 (Candida albicans C1-2) | Minimal inhibitory concentration(MIC), A furnigatus B. 19119 [2] | Minimal inhibitory concentration(MIC), Cry. neoformans B. 42419 [3] | Minimal inhibitory concentration(MIC), Cry. neoformans A. 34144 [4] | Minimal inhibitory concentration(MIC), C. tropicalis A. 13803 [5] | Minimal inhibitory concentration(MIC), A. niger A. 16404 [6] | Minimal inhibitory concentration(MIC), C. krusei K. 11655 (Candida krusei K. 11655) | Minimal inhibitory concentration(MIC), C. albicans IFO. 1385 [7] | Minimal inhibitory concentration(MIC), T. mentagrophytes B. 32663 [8] | Minimal inhibitory concentration(MIC), C. albicans A. 10231 [9] | Minimal inhibitory concentration(MIC), Cry. neoformans IFM. 40092 [10] | Minimal inhibitory concentration(MIC), C. parapsitosis A. 7330 [11] | Minimal inhibitory concentration(MIC), C. pseudotropicalis K. 11658 [12] | Minimal inhibitory concentration(MIC), T. glabrata B. 16205 [13] | further results
FC(=C(c1ccc2c(c1)OCO2)C(F)(F)F)N1CCN(c2ccc(OCC3COC(Cn4ccnc4)(c4ccc(Cl)cc4Cl)O3)cc2)CC1 (mixture of isomers) [Ex. 132] | 6.25 µg/mL | >100 µg/mL | >100 µg/mL | 0.78 µg/mL | 0.78 µg/mL | >100 µg/mL | >100 µg/mL | 1.56 µg/mL | 1.56 µg/mL | 1.56 µg/mL | >100 µg/mL | 0.20 µg/mL | 1.56 µg/mL | 1.56 µg/mL | >100 µg/mL | 
CCc1ccc(C(=C(F)Oc2ccc(OCC3COC(Cn4ccnc4)(c4ccc(Cl)cc4Cl)O3)cc2)C(F)(F)F)cc1 (mixture of isomers) [Ex. 95] | 50.0 µg/mL | >100 µg/mL | >100 µg/mL | 6.25 µg/mL | 3.13 µg/mL | >100 µg/mL | >100 µg/mL | >100 µg/mL | 6.25 µg/mL | 50.0 µg/mL | >100 µg/mL |  | >100 µg/mL | >100 µg/mL | >100 µg/mL | 
Cc1ccc(C(=C(F)N2CCN(c3ccc(OCC4COC(Cn5ccnc5)(c5ccc(Cl)cc5Cl)O4)cc3)CC2)C(F)(F)F)cc1 (mixture of isomers) [Ex. 126] | 12.5 µg/mL | >100 µg/mL | >100 µg/mL | 0.78 µg/mL | 0.78 µg/mL | >100 µg/mL | >100 µg/mL | 3.13 µg/mL | 1.56 µg/mL | 6.25 µg/mL |  | ≦0.10 μg/ml | 3.13 µg/mL | 1.56 µg/mL | >100 µg/mL | 
FC(=Cc1ccc2c(c1)OCO2)OCC1COC(Cn2ccnc2)(c2ccc(F)cc2F)O1 (mixture of isomers) [Ex. 46] |  |  |  |  |  |  |  |  |  |  |  |  |  |  |  | Minimal inhibitory concentration (MIC) ([1]; T. mentagrophytes A. 9129, RPMI-1640, 35° C.): 0.39 µg/mL; Minimal inhibitory concentration (MIC) (Candida albicans C1-2; C. albicans C1-2, RPMI-1640, 35° C.): 25.0 µg/mL; Minimal inhibitory concentration (MIC) ([2]; A furnigatus B. 19119, RPMI-1640, 35° C.): 1.56 µg/mL; Minimal inhibitory concentration (MIC) ([3]; Cry. neoformans B. 42419, RPMI-1640, 35° C.): 0.78 µg/mL; Minimal inhibitory concentration (MIC) ([4]; Cry. neoformans A. 34144, RPMI-1640, 35° C.): 0.78 µg/mL; Minimal inhibitory concentration (MIC) ([5]; C. tropicalis A. 13803, RPMI-1640, 35° C.): 50.0 µg/mL; Minimal inhibitory concentration (MIC) ([6]; A. niger A. 16404, RPMI-1640, 35° C.): 12.5 µg/mL; Minimal inhibitory concentration (MIC) (Candida krusei K. 11655; C. krusei K. 11655, RPMI-1640, 35° C.): 25.0 µg/mL; Minimal inhibitory concentration (MIC) ([7]; C. albicans IFO. 1385, RPMI-1640, 35° C.): ≦0.10 μg/ml; Minimal inhibitory concentration (MIC) ([8]; T. mentagrophytes B. 32663, RPMI-1640, 35° C.): 0.20 µg/mL; Minimal inhibitory concentration (MIC) ([10]; Cry. neoformans IFM. 40092, RPMI-1640, 35° C.): ≦0.10 μg/ml; Minimal inhibitory concentration (MIC) ([11]; C. parapsitosis A. 7330, RPMI-1640, 35° C.): 25.0 µg/mL; Minimal inhibitory concentration (MIC) ([12]; C. pseudotropicalis K. 11658, RPMI-1640, 35° C.): 12.5 µg/mL; Minimal inhibitory concentration (MIC) ([13]; T. glabrata B. 16205, RPMI-1640, 35° C.): 12.5 µg/mL

— patent US6376497B1, “Antifungal azole derivatives having a fluorinated vinyl group and process for preparing same” (Korea Research Institute of Chemical Technology, priority 1999, dated 2002)
